Data taken from ChEMBL document CHEMBL1156944, “Efficient microwave-assisted prenylation of pinostrobin and biological evaluation of its derivatives as antitumor agents” (Bioorg Med Chem Lett, 2010).

How the values were obtained:
Assay type in all cases: functional, cell-based
[1] = Cytotoxicity against human COLO320DM cells after 72 hrs by WST-8 assay; details: COLO 320DM
SK-BR-3 = assay: Cytotoxicity against human SK-BR-3 cells after 72 hrs by WST-8 assay; details: SK-BR-3, 72 h
MCF7 = assay: Cytotoxicity against human MCF7 cells after 72 hrs by WST-8 assay; details: MCF7, 72 h
PC-3 = assay: Cytotoxicity against human PC3 cells after 72 hrs by WST-8 assay; details: PC-3, 72 h

Row | SMILES | IC50 [1] [µM] | IC50 (SK-BR-3) [µM] | IC50 (MCF7) [µM] | IC50 (PC-3) [µM]
1 | COc1cc2c(c3c1C(C)(C)C(C)O3)C(=O)CC(c1ccccc1)O2 (configuration not stated) | 18.6 | 14 | 29.5 | 10.4
2 | COc1cc(O)c2c(c1)O[C@H](c1ccccc1)CC2=O [PINOSTROBIN] | > 100 | 94.3 | 84.9 | 86.7
3 | COc1cc(O)c2c(c1CC=C(C)C)OC(c1ccccc1)CC2=O (configuration not stated) | 24.2 | 34.4 | 30.3 | 35.3
